US5607937A, “Piperazides of substituted phenylalanine derivatives as thrombin inhibitors” (priority 1993, dated 1997)

Key:
[1] = plasma concentration in rats after intravenous administration; format: in vivo; conditions: rat
Protocol: (§4) A physiological NaCl solution of the substance to be tested was submitted to high pressure liquid chromatography (HPLC) in order to determine its characteristic substance-specific retention time with the chosen test conditions.
(§5) The substance to be tested was diluted in vitro in rat plasma. This solution was also submitted to HPLC to see whether the characteristic peak of the substance once again appeared at the substance-specific retention time.
(§6) Blood samples were taken at time intervals of 15 minutes, from which plasma samples were prepared by centrifugation; those samples were also submitted to HPLC to see whether the characteristic peak of the substance appeared again at the substance-specific retention time.
(§7) After administration, blood samples were taken from the test animals at time intervals from 2 to maximally 360 minutes and the blood level of the compounds to be tested was determined by HPLC.

[2] = plasma concentration in rats after oral administration; format: in vivo; conditions: rat
Protocol: as §4, §5, §6, §7

[3] = plasma concentration in rats after rectal administration; format: in vivo; conditions: rat
[4] = tested on: coagulation in rat plasma; test: thrombin time in rat plasma after rectal application; format: in vivo
Protocol: (§1) After rectal administration of the compounds to be tested, the anticoagulant effect was determined in the plasma of experimental animals.

[5] = tested on: coagulation in rat plasma; test: aPTT in rat plasma after rectal application; format: in vivo
Protocol: as §1

[6] = concentration in rat plasma in the anticoagulant study after rectal application; format: in vivo; conditions: for concentration at 0.5 h / concentration at 1 h / concentration at 2 h / concentration at 3 h: plasma; for concentration at 0.5 h: 30 min; for concentration at 1 h: 60 min; for concentration at 2 h: 120 min; for concentration at 3 h: 180 min; for Concentration in plasma: 0 min
[7] = tested on: stasis-induced venous thrombosis in the rat; test: antithrombotic efficacy, stasis-induced venous thrombosis model (Wessler); format: in vivo; conditions: for Thrombus scale 0 (vein segments): 0=liquid blood; for Thrombus scale 1 (vein segments): 1=one or several small thrombi; for Thrombus scale 2 (vein segments): 2=not fully closed vascular segment; for Thrombus scale 3 (vein segments): 3=fully closed vascular segment
Protocol: (§2) The antithrombotic activity of the compounds was determined in the rat on the model of the stasis-induced thrombosis according to Wessler et al. (J. Appl. Physiol. 14, 943-946, 1959). The thrombus was induced by serum 30 min after application of the inhibitor and macroscopically evaluated after 10 further min.
(§3) After rectal application, the compounds of the present invention are absorbed to an extent leading to antithrombotically active plasma levels. This has been shown with the model of the stasis-induced venous thrombosis in the rat according to Wessler et al. This method consisted in macroscopically evaluating thrombi induced by serum in jugular vein segments by means of a scale (0=liquid blood, 1=one or several small thrombi, 2=not fully closed vascular segment, 3=fully closed vascular segment). The antithrombotic effect is clearly dose-dependent.
The relative thrombus scale is the quotient of the mean thrombus size of the treated group (e.g. the mean value at 5 mg/kg is 1.2) and the mean thrombus size of the control group (2.9).

[8] = plasma level in the stasis-induced thrombosis study, rectal application; format: in vivo; conditions: rat; for concentration at 0.5 h: 30 min; for concentration at 1 h: 60 min
Protocol: as §2, §3

thrombin = thrombin (Bos taurus, UniProt P00735)
[9] = tested on: coagulation in human plasma; test: thrombin time (TT) in human plasma
tPA = tPA (Homo sapiens, UniProt P00750); test: inhibition of tPA, dissociation constant Ki
tPA, sequence (P00750 36-562): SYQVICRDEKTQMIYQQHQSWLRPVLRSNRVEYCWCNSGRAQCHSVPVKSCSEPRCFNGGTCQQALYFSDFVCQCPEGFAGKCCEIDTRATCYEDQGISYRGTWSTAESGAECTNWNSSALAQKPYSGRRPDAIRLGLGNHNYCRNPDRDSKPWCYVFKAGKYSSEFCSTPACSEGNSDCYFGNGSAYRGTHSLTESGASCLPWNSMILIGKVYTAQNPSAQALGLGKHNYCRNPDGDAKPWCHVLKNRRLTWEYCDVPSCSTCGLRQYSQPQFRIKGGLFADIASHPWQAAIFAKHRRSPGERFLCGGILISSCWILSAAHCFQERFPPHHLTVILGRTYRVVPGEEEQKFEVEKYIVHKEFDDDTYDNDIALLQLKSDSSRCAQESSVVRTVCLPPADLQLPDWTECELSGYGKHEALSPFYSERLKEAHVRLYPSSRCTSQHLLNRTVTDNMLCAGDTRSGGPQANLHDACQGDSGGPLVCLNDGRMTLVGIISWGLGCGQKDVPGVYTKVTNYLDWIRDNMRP

plasmin = plasmin (Homo sapiens, UniProt P00747); test: inhibition of plasmin, dissociation constant Ki
plasmin, sequence (P00747 581-810 limits assumed): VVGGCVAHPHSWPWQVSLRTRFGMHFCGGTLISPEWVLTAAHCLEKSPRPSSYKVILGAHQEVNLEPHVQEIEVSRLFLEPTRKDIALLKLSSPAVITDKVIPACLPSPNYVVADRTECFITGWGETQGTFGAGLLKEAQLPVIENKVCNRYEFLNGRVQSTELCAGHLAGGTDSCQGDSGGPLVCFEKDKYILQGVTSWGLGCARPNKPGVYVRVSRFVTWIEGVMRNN
plasmin, sequence (P00747 97-580 partner limits assumed): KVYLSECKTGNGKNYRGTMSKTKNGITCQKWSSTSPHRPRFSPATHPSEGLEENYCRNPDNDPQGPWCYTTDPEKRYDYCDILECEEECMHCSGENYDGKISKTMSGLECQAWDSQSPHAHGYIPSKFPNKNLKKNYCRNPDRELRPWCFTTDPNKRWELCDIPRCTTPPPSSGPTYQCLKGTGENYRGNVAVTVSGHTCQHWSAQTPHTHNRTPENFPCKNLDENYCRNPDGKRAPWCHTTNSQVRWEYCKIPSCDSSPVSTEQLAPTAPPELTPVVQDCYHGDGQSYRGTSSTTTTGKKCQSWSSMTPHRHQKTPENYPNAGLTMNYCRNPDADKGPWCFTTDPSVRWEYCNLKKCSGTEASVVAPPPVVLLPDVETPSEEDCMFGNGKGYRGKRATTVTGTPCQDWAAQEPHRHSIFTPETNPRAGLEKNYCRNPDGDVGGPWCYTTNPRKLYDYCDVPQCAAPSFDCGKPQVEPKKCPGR

[10] = tested on: coagulation in human plasma; test: prothrombin time (PT, Quick value) in human plasma
factor XIIa = biological target: T1, factor XIIa (Homo sapiens, UniProt P00748); test: inhibition of factor XIIa, dissociation constant Ki
T1 sequence (P00748 373-615 limits assumed): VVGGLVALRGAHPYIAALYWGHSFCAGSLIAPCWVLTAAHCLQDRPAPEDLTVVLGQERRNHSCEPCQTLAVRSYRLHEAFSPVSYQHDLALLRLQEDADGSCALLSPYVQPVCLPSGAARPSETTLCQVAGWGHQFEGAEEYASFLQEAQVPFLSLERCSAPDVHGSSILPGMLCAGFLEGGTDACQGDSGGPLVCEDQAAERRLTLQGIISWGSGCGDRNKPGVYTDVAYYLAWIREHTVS

plasma kallikrein = plasma kallikrein (Homo sapiens, UniProt P03952); test: inhibition of plasma kallikrein, dissociation constant Ki
plasma kallikrein, sequence (P03952 391-638 limits assumed, species assumed): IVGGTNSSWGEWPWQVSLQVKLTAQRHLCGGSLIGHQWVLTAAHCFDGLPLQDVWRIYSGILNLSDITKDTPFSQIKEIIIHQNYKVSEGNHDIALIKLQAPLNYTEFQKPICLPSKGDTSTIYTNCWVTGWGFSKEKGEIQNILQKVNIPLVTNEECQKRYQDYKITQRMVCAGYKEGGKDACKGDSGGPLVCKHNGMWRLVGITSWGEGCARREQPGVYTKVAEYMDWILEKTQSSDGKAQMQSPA
plasma kallikrein, sequence (P03952 20-390 partner limits assumed, species assumed): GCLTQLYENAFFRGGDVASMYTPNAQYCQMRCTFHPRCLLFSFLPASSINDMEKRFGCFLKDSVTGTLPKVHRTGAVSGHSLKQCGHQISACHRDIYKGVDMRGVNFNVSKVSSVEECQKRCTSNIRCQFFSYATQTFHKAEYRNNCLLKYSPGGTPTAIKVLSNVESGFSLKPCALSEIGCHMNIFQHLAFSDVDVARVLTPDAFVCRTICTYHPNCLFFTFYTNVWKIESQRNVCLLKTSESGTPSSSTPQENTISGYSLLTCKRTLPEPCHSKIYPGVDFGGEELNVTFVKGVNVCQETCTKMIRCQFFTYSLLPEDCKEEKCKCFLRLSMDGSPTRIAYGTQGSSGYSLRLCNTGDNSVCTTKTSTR

glandular kallikrein = glandular kallikrein (Sus scrofa, UniProt P00752); test: inhibition of glandular kallikrein, dissociation constant Ki
glandular kallikrein, sequence (P00752 8-246): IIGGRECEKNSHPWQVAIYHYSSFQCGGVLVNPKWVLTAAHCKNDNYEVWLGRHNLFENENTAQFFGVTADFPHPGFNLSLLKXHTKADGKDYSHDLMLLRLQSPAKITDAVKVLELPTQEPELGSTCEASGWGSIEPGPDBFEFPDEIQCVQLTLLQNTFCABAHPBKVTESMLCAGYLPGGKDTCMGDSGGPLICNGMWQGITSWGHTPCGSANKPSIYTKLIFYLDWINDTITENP

[11] = tested on: coagulation in human plasma; test: activated partial thromboplastin time (aPTT) in human plasma

CC(=O)N1CCN(C(=O)[C@H](Cc2cccc(C(=N)N)c2)NS(=O)(=O)c2ccc3ccccc3c2)CC1.Cl [Compound 2, Nα-(2-naphthylsulfonyl)-(L)-3-amidinophenylalanine-4-acetylpiperazide hydrochloride]
concentration at 5 min ([1]; plasma, iv, i.v. 1 mg/kg, 5 min): 780 ng/mL
concentration at 0.25 h ([1]; plasma, iv, i.v. 1 mg/kg, 15 min): 224 ng/mL
concentration at 0.5 h ([1]; plasma, iv, i.v. 1 mg/kg, 30 min): 95 ng/mL
concentration at 1 h ([1]; plasma, iv, i.v. 1 mg/kg, 60 min): 38 ng/mL
concentration at 2 h ([1]; plasma, iv, i.v. 1 mg/kg, 120 min): 12 ng/mL
concentration at 3 h ([1]; plasma, iv, i.v. 1 mg/kg, 180 min): 10 ng/mL
elimination in words ([1]; i.v.): eliminated at comparable rate
concentration at 0.5 h ([2]; plasma, oral 50 mg/kg, 30 min): 1200 ng/mL
concentration at 1 h ([2]; plasma, oral 50 mg/kg, 60 min): 873 ng/mL
concentration at 2 h ([2]; plasma, oral 50 mg/kg, 120 min): 333 ng/mL
concentration at 3 h ([2]; plasma, oral 50 mg/kg, 180 min): 124 ng/mL
concentration at 4 h ([2]; plasma, oral 50 mg/kg, 240 min): 44 ng/mL
concentration at 5 h ([2]; plasma, oral 50 mg/kg, 300 min): 46 ng/mL
resorption in words ([2]; oral): only slightly resorbed
concentration at 0.5 h ([3]; plasma, rectal 100 mg/kg, 30 min): 32400 ng/mL
concentration at 1 h ([3]; plasma, rectal 100 mg/kg, 60 min): 23100 ng/mL
concentration at 2 h ([3]; plasma, rectal 100 mg/kg, 120 min): 5300 ng/mL
concentration at 3 h ([3]; plasma, rectal 100 mg/kg, 180 min): 2700 ng/mL
concentration at 4 h ([3]; plasma, rectal 100 mg/kg, 240 min): 1260 ng/mL
concentration at 5 h ([3]; plasma, rectal 100 mg/kg, 300 min): 810 ng/mL
concentration at 6 h ([3]; plasma, rectal 100 mg/kg, 360 min): 508 ng/mL
detectable in plasma after rectal administration ([3]; rectal): ≥ 6 h
detection/blood levels in words ([3]; rectal): absorbed by the intestine in particular after rectal administration to rats
Clotting time, Thrombin time ([4]; rectal 5 mg/kg, 0 min): 32 s
Clotting time, Thrombin time ([4]; rectal 5 mg/kg, 30 min): > 300 s
Clotting time, Thrombin time ([4]; rectal 5 mg/kg, 60 min): 224 s
Clotting time, Thrombin time ([4]; rectal 5 mg/kg, 120 min): 176 s
Clotting time, Thrombin time ([4]; rectal 5 mg/kg, 180 min): 107 s
Clotting time, Thrombin time ([4]; rectal 20 mg/kg, 0 min): 64 s
Clotting time, Thrombin time ([4]; rectal 20 mg/kg, 30 min): > 300 s
Clotting time, Thrombin time ([4]; rectal 20 mg/kg, 60 min): > 300 s
Clotting time, Thrombin time ([4]; rectal 20 mg/kg, 120 min): > 300 s
Clotting time, Thrombin time ([4]; rectal 20 mg/kg, 180 min): > 300 s
Clotting time, aPTT ([5]; rectal 5 mg/kg, 0 min): 22.5 s
Clotting time, aPTT ([5]; rectal 5 mg/kg, 30 min): 37 s
Clotting time, aPTT ([5]; rectal 5 mg/kg, 60 min): 33 s
Clotting time, aPTT ([5]; rectal 5 mg/kg, 120 min): 30 s
Clotting time, aPTT ([5]; rectal 5 mg/kg, 180 min): 26.4 s
Clotting time, aPTT ([5]; rectal 20 mg/kg, 0 min): 28 s
Clotting time, aPTT ([5]; rectal 20 mg/kg, 30 min): 120 s
Clotting time, aPTT ([5]; rectal 20 mg/kg, 60 min): 87 s
Clotting time, aPTT ([5]; rectal 20 mg/kg, 120 min): 59 s
Clotting time, aPTT ([5]; rectal 20 mg/kg, 180 min): 50 s
concentration at 0.5 h ([6]; rectal 5 mg/kg): 296 ng/mL
concentration at 1 h ([6]; rectal 5 mg/kg): 160 ng/mL
concentration at 2 h ([6]; rectal 5 mg/kg): 60 ng/mL
concentration at 3 h ([6]; rectal 5 mg/kg): 40 ng/mL
concentration at 0.5 h ([6]; rectal 20 mg/kg): 5440 ng/mL
concentration at 1 h ([6]; rectal 20 mg/kg): 2090 ng/mL
concentration at 2 h ([6]; rectal 20 mg/kg): 812 ng/mL
concentration at 3 h ([6]; rectal 20 mg/kg): 660 ng/mL
Concentration in plasma ([6]; rectal 5 mg/kg): 0 ng/mL
Concentration in plasma ([6]; rectal 20 mg/kg): 0 ng/mL
Thrombus scale 0 (vein segments) ([7]; rectal 5 mg/kg): 0
Thrombus scale 1 (vein segments) ([7]; rectal 5 mg/kg): 8
Thrombus scale 2 (vein segments) ([7]; rectal 5 mg/kg): 2
Thrombus scale 3 (vein segments) ([7]; rectal 5 mg/kg): 0
mean thrombus size of the treated group ([7]; rectal 5 mg/kg, scale 0-3, control 2.9): 1.2
Thrombus scale 0 (vein segments) ([7]; rectal 20 mg/kg): 6
Thrombus scale 1 (vein segments) ([7]; rectal 20 mg/kg): 1
Thrombus scale 2 (vein segments) ([7]; rectal 20 mg/kg): 0
Thrombus scale 3 (vein segments) ([7]; rectal 20 mg/kg): 0
Thrombus scale 0 (vein segments) ([7]; rectal 100 mg/kg): 6
Thrombus scale 1 (vein segments) ([7]; rectal 100 mg/kg): 0
Thrombus scale 2 (vein segments) ([7]; rectal 100 mg/kg): 0
Thrombus scale 3 (vein segments) ([7]; rectal 100 mg/kg): 0
concentration at 0.5 h ([8]; rectal 5 mg/kg): 228 ng/mL
concentration at 1 h ([8]; rectal 5 mg/kg): 160 ng/mL
concentration at 0.5 h ([8]; rectal 20 mg/kg): 1620 ng/mL
concentration at 1 h ([8]; rectal 20 mg/kg): 998 ng/mL
concentration at 0.5 h ([8]; rectal 100 mg/kg): 28700 ng/mL
concentration at 1 h ([8]; rectal 100 mg/kg): 16100 ng/mL
thrombin inhibition in words (thrombin): potent thrombin inhibitor
Concentr. to double the Thrombin time [9]: 0.055 µmol/L
concentration to double the TT [9]: less than 10^-7 mol/1
Ki (tPA): 440 µM
Ki (plasmin): 5.4 µM
Concentr. to double the Prothrombin time [10]: 0.90 µmol/L
concentration to double the PT [10]: ≤ 1 μmol/1
Ki (factor XIIa): 150 µM
Ki (plasma kallikrein): 15 µM
Ki (glandular kallikrein): > 1000 µM
Concentr. to double the aPTT [11]: 0.36 µmol/L
concentration to double the aPTT [11]: ≤ 1 μmol/1
